Patent US9321773B2, “Compounds” (Respivert Ltd, priority 2009, dated 2016)

Assays:
recombinant PI3 kinase α = recombinant PI3 kinase α (Homo sapiens (Human), UniProt P42336); experiment: Enzyme Inhibition Assay (HTRF PI3K enzyme assay, TR-FRET); format: biochemical; details: activity range; read-out: PI3 Kinase Inhibition IC50 values at stated Isozyme α
Source text: (§1) PI3 kinases catalyse the phosphorylation of phosphatidylinositol 4,5-biphosphate (PIP2) to phosphatidylinositol 3,4,5-triphosphate (PIP3) in the presence of ATP and Mg^2+ ions. The PIP3 product can be detected by displacement of biotin-PIP3 from energy transfer complexes consisting of europium labelled anti-GST monoclonal antibody, a GST-tagged Pleckstrin homology (PH) domain, biotinylated PIP3 and streptavidin-allophycocyanin (APC) by the time-resolved fluorescence resonance energy transfer (TR-FRET) (HTRF® PI3K enzyme assay, Millipore). […] The PIP3 product formed by PI3K activity displaces biotin-PIP3 from the complex and results in a loss of energy transfer (decreasing signal).
(§2) The compound to be tested was added, at the desired final concentrations, to a mixture of PIP2 substrate and recombinant PI3 kinase α, δ or γ enzymes (Millipore), and the mixture incubated for 2 hr at RT. […] A stopping solution containing biotinylated PIP3 and the detection mix containing the GST tagged GRP1 pleckstrin homology (PH) domain and fluorophores were then added and the mixture was incubated at RT for 15-18 hr, prior to detection in a fluorescence microplate reader (Varioskan® Flash, ThermoFisher Scientific).

recombinant PI3 kinase δ = recombinant PI3 kinase δ (Homo sapiens (Human), UniProt O00329); experiment: as above; format: biochemical; details: activity range; read-out: PI3 Kinase Inhibition IC50 values at stated Isozyme δ
Source text: as §1, §2

recombinant PI3 kinase γ = recombinant PI3 kinase γ (Homo sapiens (Human), UniProt P48736); experiment: as above; format: biochemical; details: activity range; read-out: PI3 Kinase Inhibition IC50 values at stated Isozyme γ
Source text: as §1, §2

[1] = test system: PMA-differentiated U937 cells; experiment: MTT Assay (cell viability); format: cell-based, Human; details: percentage loss of cell viability; for Cell Viability MTT Assay in D-U937 cells at 4 hr: 4 hr in 5% FCS; for Cell Viability MTT Assay in D-U937 cells at 24 hr: 24 hr in 10% FCS
Method: PMA-differentiated U937 cells were pre-incubated with compound for 4 hr in 5% FCS or 10% FCS for 24 hr. The supernatant was replaced with 200 μL of new media and 10 μL of MTT stock solution (5 mg/ml) added to each well. After 1 hr incubation, the media were removed, 200 μL of DMSO added to each well and the plates were shaken lightly for 1 hr prior to reading the absorbance at 550 nm. The percentage loss of cell viability was calculated for each well relative to vehicle (0.5% DMSO)-treatment (Table 3).

[2] = test system: H2O2 induced pAkt in D-U937 cells; experiment: PI3Kδ Cell Based Assay (H2O2 induced pAkt); details: Homo sapiens, dU937; activity range; D-U937 cells; read-out: Cellular Activity IC50 values (H2O2 induced pAkt D-U937 Cells)
Method: As a means of assessing PI3K 6 activation in response to stimuli, the phosphorylation status of the protein, Akt, a downstream product of PI3K6, signaling was determined. Human monocytic cells (U937 cells), were differentiated to macrophage-type cells by incubation with phorbol myristate acetate (PMA; 100 ng/mL) for 48 to 72 hr. […] The cells were washed with buffer (PBS containing 0.1% Triton X-100) and were incubated with blocking solution (1% BSA in PBS) for 1 hr and were then re-washed with buffer and incubated overnight with either anti-pAkt antibody or anti-pan-Akt antibody (both from Cell Signaling Technology). […] This reaction was stopped by addition of 100 μL of 1N H2SO4 solution. […] The ratio of pAkt signal to total Akt signal was used to quantitate the extent of PI3K δ activation. […] The IC50 values were calculated from the concentration-response curves generated by the serial dilutions of the test compounds (Table 3 and Table 4).

Sequence of recombinant PI3 kinase γ (P48736 whole entry): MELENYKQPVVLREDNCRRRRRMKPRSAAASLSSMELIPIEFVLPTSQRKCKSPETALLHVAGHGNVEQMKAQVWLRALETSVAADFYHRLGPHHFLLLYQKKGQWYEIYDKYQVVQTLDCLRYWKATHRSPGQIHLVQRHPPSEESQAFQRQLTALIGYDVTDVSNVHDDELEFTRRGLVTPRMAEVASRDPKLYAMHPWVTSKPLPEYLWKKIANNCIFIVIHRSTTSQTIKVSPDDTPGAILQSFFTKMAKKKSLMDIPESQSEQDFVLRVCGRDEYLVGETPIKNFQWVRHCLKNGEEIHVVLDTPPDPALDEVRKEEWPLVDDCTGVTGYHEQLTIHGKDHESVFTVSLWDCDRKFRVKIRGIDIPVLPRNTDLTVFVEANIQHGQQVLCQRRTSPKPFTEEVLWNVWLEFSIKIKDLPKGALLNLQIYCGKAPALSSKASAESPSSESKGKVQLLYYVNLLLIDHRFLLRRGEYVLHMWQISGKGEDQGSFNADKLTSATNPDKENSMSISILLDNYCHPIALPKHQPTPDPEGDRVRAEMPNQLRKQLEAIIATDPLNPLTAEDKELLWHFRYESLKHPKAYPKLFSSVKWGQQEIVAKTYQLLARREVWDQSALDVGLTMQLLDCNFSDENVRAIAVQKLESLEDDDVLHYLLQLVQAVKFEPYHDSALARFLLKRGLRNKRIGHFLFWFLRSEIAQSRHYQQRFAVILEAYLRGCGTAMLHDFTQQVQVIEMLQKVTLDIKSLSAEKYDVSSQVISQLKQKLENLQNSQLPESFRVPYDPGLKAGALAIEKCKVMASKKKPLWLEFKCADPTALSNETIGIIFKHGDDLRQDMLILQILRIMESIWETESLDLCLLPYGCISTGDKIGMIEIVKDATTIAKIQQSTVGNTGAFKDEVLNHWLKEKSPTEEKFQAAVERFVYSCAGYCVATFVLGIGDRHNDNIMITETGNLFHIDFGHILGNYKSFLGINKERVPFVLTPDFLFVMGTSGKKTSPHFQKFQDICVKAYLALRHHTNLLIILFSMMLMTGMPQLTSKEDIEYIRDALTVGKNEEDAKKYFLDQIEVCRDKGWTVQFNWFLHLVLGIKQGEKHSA
Sequence of recombinant PI3 kinase α (P42336 whole entry): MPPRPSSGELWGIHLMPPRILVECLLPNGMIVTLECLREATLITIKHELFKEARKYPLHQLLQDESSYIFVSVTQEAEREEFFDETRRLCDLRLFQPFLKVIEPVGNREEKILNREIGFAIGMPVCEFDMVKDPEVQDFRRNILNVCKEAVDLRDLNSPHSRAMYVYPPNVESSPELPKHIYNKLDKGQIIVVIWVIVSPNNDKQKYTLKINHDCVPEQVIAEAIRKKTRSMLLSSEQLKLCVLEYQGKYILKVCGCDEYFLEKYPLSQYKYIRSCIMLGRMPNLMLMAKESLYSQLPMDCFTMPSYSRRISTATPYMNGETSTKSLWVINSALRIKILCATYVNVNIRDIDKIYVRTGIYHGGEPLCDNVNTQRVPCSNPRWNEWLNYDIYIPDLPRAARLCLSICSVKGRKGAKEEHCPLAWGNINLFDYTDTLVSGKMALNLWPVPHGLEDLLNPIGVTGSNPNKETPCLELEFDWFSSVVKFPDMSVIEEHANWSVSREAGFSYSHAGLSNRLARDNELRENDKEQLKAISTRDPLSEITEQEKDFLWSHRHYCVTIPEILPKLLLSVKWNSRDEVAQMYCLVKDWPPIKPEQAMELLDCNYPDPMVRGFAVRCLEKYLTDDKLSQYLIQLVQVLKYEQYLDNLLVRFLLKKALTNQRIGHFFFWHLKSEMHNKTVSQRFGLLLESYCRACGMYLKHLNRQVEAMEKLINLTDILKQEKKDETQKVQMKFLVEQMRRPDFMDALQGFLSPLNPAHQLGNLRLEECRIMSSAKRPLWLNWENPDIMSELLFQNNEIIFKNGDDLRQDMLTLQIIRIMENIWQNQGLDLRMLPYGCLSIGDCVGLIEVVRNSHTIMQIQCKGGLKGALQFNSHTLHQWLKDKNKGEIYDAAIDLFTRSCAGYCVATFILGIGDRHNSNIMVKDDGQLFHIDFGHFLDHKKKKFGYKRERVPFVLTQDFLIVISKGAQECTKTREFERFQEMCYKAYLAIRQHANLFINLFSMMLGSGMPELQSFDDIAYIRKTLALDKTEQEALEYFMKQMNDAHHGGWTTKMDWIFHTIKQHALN
Sequence of recombinant PI3 kinase α (P27986 whole entry partner): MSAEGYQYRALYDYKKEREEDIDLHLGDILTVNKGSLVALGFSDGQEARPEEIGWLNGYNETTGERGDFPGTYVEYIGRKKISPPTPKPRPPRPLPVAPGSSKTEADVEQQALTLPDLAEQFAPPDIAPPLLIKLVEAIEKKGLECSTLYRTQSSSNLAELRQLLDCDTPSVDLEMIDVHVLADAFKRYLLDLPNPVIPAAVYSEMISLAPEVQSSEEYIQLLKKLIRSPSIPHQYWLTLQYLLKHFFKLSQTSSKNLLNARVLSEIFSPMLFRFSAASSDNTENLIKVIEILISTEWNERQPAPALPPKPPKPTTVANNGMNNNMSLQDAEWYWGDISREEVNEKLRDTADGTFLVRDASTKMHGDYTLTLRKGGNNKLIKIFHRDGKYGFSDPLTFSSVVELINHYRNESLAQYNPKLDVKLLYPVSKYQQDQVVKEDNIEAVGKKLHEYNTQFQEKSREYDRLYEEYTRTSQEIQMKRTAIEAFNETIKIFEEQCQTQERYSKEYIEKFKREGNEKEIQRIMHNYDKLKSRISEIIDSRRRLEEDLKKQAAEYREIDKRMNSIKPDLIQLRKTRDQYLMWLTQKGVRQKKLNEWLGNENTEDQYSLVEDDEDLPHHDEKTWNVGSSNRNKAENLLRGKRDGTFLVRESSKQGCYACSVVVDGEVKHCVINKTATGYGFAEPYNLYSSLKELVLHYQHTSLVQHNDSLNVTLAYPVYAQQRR
Sequence of recombinant PI3 kinase δ (O00329 whole entry): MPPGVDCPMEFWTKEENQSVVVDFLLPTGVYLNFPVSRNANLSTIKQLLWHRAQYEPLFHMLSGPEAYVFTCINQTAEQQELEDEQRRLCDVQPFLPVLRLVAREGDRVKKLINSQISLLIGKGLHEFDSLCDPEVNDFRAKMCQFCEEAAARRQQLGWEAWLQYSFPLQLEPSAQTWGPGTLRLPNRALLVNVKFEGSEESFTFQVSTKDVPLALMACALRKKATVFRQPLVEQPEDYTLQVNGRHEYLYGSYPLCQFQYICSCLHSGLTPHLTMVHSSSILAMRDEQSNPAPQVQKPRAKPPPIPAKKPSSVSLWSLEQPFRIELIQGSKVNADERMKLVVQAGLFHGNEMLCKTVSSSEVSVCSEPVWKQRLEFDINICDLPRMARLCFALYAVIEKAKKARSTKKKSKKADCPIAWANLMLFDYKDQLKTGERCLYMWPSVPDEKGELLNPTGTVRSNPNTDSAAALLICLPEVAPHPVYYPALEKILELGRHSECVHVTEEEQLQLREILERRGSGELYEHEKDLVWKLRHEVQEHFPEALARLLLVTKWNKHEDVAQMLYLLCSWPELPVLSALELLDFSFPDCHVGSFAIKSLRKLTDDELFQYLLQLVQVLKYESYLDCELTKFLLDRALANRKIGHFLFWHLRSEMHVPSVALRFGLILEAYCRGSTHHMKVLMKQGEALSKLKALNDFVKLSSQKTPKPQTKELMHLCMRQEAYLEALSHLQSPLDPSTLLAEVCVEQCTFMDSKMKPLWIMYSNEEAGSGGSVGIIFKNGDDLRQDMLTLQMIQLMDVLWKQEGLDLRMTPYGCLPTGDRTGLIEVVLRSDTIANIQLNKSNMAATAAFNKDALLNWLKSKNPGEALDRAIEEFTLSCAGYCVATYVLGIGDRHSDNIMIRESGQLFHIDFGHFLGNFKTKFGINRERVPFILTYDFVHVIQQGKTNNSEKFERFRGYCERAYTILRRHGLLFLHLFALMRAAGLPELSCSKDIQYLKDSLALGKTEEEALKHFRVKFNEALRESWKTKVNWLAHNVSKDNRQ
Sequence of recombinant PI3 kinase δ (P27986 whole entry partner): as the sequence (P27986 whole entry partner) above

| SMILES | IC50 (recombinant PI3 kinase α) | IC50 (recombinant PI3 kinase δ) | IC50 (recombinant PI3 kinase γ) | IC50 [2] | Cell Viability MTT Assay in D-U937 cells at 4 hr [1] | Cell Viability MTT Assay in D-U937 cells at 24 hr [1] |
| --- | --- | --- | --- | --- | --- | --- |
| C#Cc1cccc2nc(Cn3nc(-c4ccc(O)cc4)c4c(N)ncnc43)n(Cc3ccccc3)c(=O)c12 [Example 44, 2-((4-Amino-3-(4-hydroxyphenyl)-1H-pyrazolo[3,4-d]pyrimidin-1-yl)methyl)-3-benzyl-5-ethynylquinazolin-4(3H)-one] | > 1000 nM | < 50 nM | 50 to 1000 nM | < 10 nM | − (− <30%) | − (− <30%) |
| C#Cc1cccc2nc(Cn3nc(-c4ccc(O)cc4)c4c(N)ncnc43)n(Cc3ccccc3C(F)(F)F)c(=O)c12 [Example 45, 2-((4-Amino-3-(4-hydroxyphenyl)-1H-pyrazolo[3,4-d]pyrimidin-1-yl)methyl)-5-ethynyl-3-(2-trifluoromethylbenzyl)quinazolin-4(3H)-one] | 50 to 1000 nM | < 50 nM | 50 to 1000 nM | < 10 nM | − (− <30%) | − (− <30%) |
| C#Cc1cccc2nc(Cn3nc(-c4ccc(O)cc4)c4c(N)ncnc43)n(Cc3ccc(OC)cc3)c(=O)c12 [Example 46, 2-((4-Amino-3-(4-hydroxyphenyl)-1H-pyrazolo[3,4-d]pyrimidin-1-yl)methyl)-5-ethynyl-3-(4-methoxybenzyl)quinazolin-4(3H)-one] | 50 to 1000 nM | < 50 nM | 50 to 1000 nM | < 10 nM | − (− <30%) | − (− <30%) |
| C#Cc1cccc2nc(Cn3nc(-c4ccc(O)cc4)c4c(N)ncnc43)n(Cc3ccc(C#N)cc3)c(=O)c12 [Example 47, 4-((2-((4-Amino-3-(4-hydroxyphenyl)-1H-pyrazolo[3,4-d]pyrimidin-1-yl)methyl)-5-ethynyl-4-oxoquinazolin-3(4H)-yl)methyl)benzonitrile] | 50 to 1000 nM | < 50 nM | 50 to 1000 nM | < 10 nM | − (− <30%) | − (− <30%) |
| C#Cc1cccc2nc(Cn3nc(-c4ccc(O)cc4)c4c(N)ncnc43)n(Cc3ccc(OC)cc3F)c(=O)c12 [Example 48, 2-((4-Amino-3-(4-hydroxyphenyl)-1H-pyrazolo[3,4-d]pyrimidin-1-yl)methyl)-5-ethynyl-3-(2-fluoro-4-methoxybenzyl)quinazolin-4(3H)-one] | 50 to 1000 nM | < 50 nM | 50 to 1000 nM | < 10 nM | − (− <30%) | − (− <30%) |
| NC(=O)NCC#Cc1cccc2nc(Cn3nc(-c4ccc(O)cc4)c4c(N)ncnc43)n(Cc3ccccc3Cl)c(=O)c12 [Example 49, 1-(3-(2-((4-Amino-3-(4-hydroxyphenyl)-1H-pyrazolo[3,4-d]pyrimidin-1-yl)methyl)-3-(2-chlorobenzyl)-4-oxo-3,4-dihydroquinazolin-5-yl)prop-2-ynyl)urea] | 50 to 1000 nM | < 50 nM | 50 to 1000 nM | < 10 nM | − (− <30%) | − (− <30%) |
| COCCOCCOCC#Cc1cccc2nc(Cn3nc(-c4cccc(O)c4)c4c(N)ncnc43)n(Cc3ccccc3F)c(=O)c12 [Example 50, 2-((4-Amino-3-(3-hydroxyphenyl)-1H-pyrazolo[3,4-d]pyrimidin-1-yl)methyl)-3-(2-fluorobenzyl)-5-(3-(2-(2-methoxyethoxy)ethoxy)prop-1-ynyl)quinazolin-4(3H)-one] | 50 to 1000 nM | < 50 nM | 50 to 1000 nM | < 10 nM | − (− <30%) | − (− <30%) |
| C#Cc1cccc2nc(Cn3nc(-c4ccc(F)c(O)c4)c4c(N)ncnc43)n(Cc3ccccc3Cl)c(=O)c12 [Example 51, 2-((4-Amino-3-(4-fluoro-3-hydroxyphenyl)-1H-pyrazolo [3,4-d]pyrimidin-1-yl)methyl)-3-(2-chlorobenzyl)-5-ethynylquinazolin-4(3H)-one] | 50 to 1000 nM | < 50 nM | 50 to 1000 nM | < 10 nM | − (− <30%) | − (− <30%) |
| Nc1ncnc2c1c(-c1ccc(O)cc1)nn2Cc1nc2cccc(C#CCOc3ccccc3)c2c(=O)n1Cc1ccccc1Cl [Example 52, 2-((4-Amino-3-(4-hydroxyphenyl)-1H-pyrazolo[3,4-d]pyrimidin-1-yl)methyl)-3-(2-chlorobenzyl)-5-(3-phenoxyprop-1-ynyl)quinazolin-4(3H)-one] | 50 to 1000 nM | < 50 nM | < 50 nM | < 10 nM | − (− <30%) | − (− <30%) |

Further lines, with some results ahead:

| IC50 (recombinant PI3 kinase α) | IC50 (recombinant PI3 kinase δ) | IC50 (recombinant PI3 kinase γ) | IC50 [2] | SMILES | Cell Viability MTT Assay in D-U937 cells at 4 hr [1] | Cell Viability MTT Assay in D-U937 cells at 24 hr [1] |
| --- | --- | --- | --- | --- | --- | --- |
| < 50 nM | < 50 nM | 50 to 1000 nM | < 10 nM | Nc1ncnc2c1c(-c1ccc(O)cc1)nn2Cc1nc2cccc(C#CCC3CCCC3)c2c(=O)n1Cc1ccccc1Cl [Example 39, 2-((4-Amino-3-(4-hydroxyphenyl)-1H-pyrazolo[3,4-d]pyrimidin-1-yl)methyl)-3-(2-chlorobenzyl)-5-(3-cyclopentylprop-1-ynyl)quinazolin-4(3H)-one] | − (− <30%) | − (− <30%) |
| 50 to 1000 nM | < 50 nM | 50 to 1000 nM | < 10 nM | Nc1ncnc2c1c(-c1ccc(O)cc1)nn2Cc1nc2cccc(C#CCOCc3ccccc3)c2c(=O)n1Cc1ccccc1Cl [Example 40, 2-((4-Amino-3-(4-hydroxyphenyl)-1H-pyrazolo[3,4-d]pyrimidin-1-yl)methyl)-5-(3-(benzyloxy)prop-1-ynyl)-3-(2-chlorobenzyl)quinazolin-4(3H)-one] | − (− <30%) | − (− <30%) |
| 50 to 1000 nM | < 50 nM | 50 to 1000 nM | < 10 nM | Nc1ncnc2c1c(-c1ccc(O)cc1)nn2Cc1nc2cccc(C#CCCCO)c2c(=O)n1Cc1ccccc1Cl [Example 41, 2-((4-Amino-3-(4-hydroxyphenyl)-1H-pyrazolo[3,4-d]pyrimidin-1-yl)methyl)-3-(2-chlorobenzyl)-5-(5-hydroxypent-1-ynyl)quinazolin-4(3H)-one] | − (− <30%) | − (− <30%) |
| 50 to 1000 nM | < 50 nM | 50 to 1000 nM | < 10 nM | C#Cc1cccc2nc(Cn3nc(-c4ccc(O)cc4)c4c(N)ncnc43)n(Cc3cc(OC)ccc3F)c(=O)c12 [Example 42, 2-((4-Amino-3-(4-hydroxyphenyl)-1H-pyrazolo[3,4-d]pyrimidin-1-yl)methyl)-5-ethynyl-3-(2-fluoro-5-methoxybenzyl)quinazolin-4(3H)-one] | − (− <30%) | − (− <30%) |
| 50 to 1000 nM | < 50 nM | 50 to 1000 nM | < 10 nM | C#Cc1cccc2nc(Cn3nc(-c4ccc(O)cc4)c4c(N)ncnc43)n(Cc3ccc(Cl)c(Cl)c3)c(=O)c12 [Example 43, 2-((4-Amino-3-(4-hydroxyphenyl)-1H-pyrazolo[3,4-d]pyrimidin-1-yl)methyl)-3-(3,4-dichlorobenzyl)-5-ethynylquinazolin-4(3H)-one] | − (− <30%) | − (− <30%) |
